Patent US12667572B2, “Tricyclic compounds useful in the treatment of cancer, autoimmune and inflammatory disorders” (SCHRÖDINGER, INC., priority 2021, dated 2026)

These compounds were tested against T1, full-length MALT1 protein His-MALT1(1-824) (Homo sapiens, UniProt Q9UDY8) (assay: MALT1 protease assay, Assay 1 (2 nM MALT1, Ac-LRSR-AMC substrate)). Conditions: 2 nM MALT1, 50 μM Ac-LRSR-AMC, 2 h pre-incubation, 8 hr incubation at RT.
T1 construct: full-length MALT1 protein His-MALT1(1-824); His (N); made in house; host or cells: baculovirus-infected insect cells
T1 sequence (Q9UDY8 1-824): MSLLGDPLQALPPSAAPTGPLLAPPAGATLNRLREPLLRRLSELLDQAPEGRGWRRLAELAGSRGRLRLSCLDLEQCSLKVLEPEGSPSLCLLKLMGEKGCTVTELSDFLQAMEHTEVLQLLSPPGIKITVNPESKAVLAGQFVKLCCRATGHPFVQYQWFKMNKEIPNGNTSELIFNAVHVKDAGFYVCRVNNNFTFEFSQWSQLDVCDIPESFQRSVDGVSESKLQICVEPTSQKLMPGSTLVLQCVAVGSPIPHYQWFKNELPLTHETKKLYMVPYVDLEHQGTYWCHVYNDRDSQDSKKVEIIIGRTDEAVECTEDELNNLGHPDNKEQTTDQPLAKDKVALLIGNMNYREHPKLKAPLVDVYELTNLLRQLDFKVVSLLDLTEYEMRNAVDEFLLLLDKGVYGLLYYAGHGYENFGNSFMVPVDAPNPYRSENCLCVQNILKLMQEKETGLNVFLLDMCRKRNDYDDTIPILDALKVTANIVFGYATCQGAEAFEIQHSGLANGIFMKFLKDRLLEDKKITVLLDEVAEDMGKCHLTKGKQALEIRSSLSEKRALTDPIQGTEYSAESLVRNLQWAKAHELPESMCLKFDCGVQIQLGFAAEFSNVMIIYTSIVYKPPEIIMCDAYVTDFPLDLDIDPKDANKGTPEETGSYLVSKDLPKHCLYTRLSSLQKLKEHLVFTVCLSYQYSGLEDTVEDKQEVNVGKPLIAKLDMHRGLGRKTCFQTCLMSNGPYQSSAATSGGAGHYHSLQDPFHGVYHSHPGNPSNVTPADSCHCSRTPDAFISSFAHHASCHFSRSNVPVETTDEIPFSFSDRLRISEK
Assay type: biochemical
Method: MALT1 protease activity was assessed in an in vitro assay using a tetrapeptide as substrate and full-length MALT1 protein His-MALT1(1-824) purified from baculovirus-infected insect cells. The tetrapeptide substrate is Ac-LRSR-AMC (SM Biochemicals) with Km measured at around 100 μM.
The final assay buffer includes 1 nM (Assay 2) or 2 nM (Assay 1) of MALT1 full-length protein, 50 μM Ac-LRSR-AMC substrate, 50 mM Tris pH 7.5, 600 mM Sodium Citrate, 1 mM DTT, 1 mM EDTA, and 0.05% BSA in 384-well plate format using black microtiter square well plates (Optiplate 384-F, Perkin Elmer).
Test compounds were dissolved in 100% DMSO at stock of 10 mM, with final DMSO concentration 0.1%. Test compounds were pre-incubated with MALT1 protein for 2 h at room temperature. Substrate was added after the pre-incubation and fluorescence signal was measured using Envision at excitation 355 nm and emission 460 nm after 8 hr incubation at RT. Increase in the assay signal was linear over this period and proportional with increase in the enzyme content.
The fluorescence units were transformed to percentage of remaining activity by using the high control (HC, median of fluorescence signal from wells containing MALT1 protein, substrate, and DMSO) and low control (LC, median of fluorescence signal from wells with substrate only) with the formula below: […]
IC50 and Hill coefficients were obtained using Graph Pad Prism (Graph Pad software, Inc, USA) with non-linear regression analysis.
`CC1(C)c2c(cnc3cc(Cl)nn23)C(C(=O)Nc2cnc(-n3nccn3)c(Cl)c2)C1O` (racemic) [Example 19, 2-chloro-N-(5-chloro-6-(2H-1,2,3-triazol-2-yl)pyridin-3-yl)-7-hydroxy-8,8-dimethyl-7,8-dihydro-6H-cyclopenta[e]pyrazolo[1,5-a]pyrimidine-6-carboxamide] showed an IC50 of 100 to 1000 nM. For `CC1(C)C[C@@H](C(=O)Nc2cnc(-n3nccn3)c(Cl)c2)c2cnc3cc(C(F)F)nn3c21` (single isomer, unassigned) [Example 24, N-(5-chloro-6-(2H-1,2,3-triazol-2-yl)pyridin-3-yl)-2-(difluoromethyl)-8,8-dimethyl-7,8-dihydro-6H-cyclopenta[e]pyrazolo[1,5-a]pyrimidine-6-carboxamide], the IC50 was ≥ 1000 nM. `CC1(C)CC(C(=O)Nc2cnc(-n3nccn3)c(Cl)c2)c2cnc3cc(C(F)(F)F)nn3c21` (stereo not shown) [Example 40, N-(5-chloro-6-(2H-1,2,3-triazol-2-yl)pyridin-3-yl)-8,8-dimethyl-2-(trifluoromethyl)-7,8-dihydro-6H-cyclopenta[e]pyrazolo[1,5-a]pyrimidine-6-carboxamide] showed an IC50 of 10 to 100 nM. `C[C@@]1(C(F)(F)F)C[C@@H](C(=O)Nc2cnc(-n3nccn3)c(Cl)c2)c2cnc3cc(Cl)nn3c21` (single isomer, unassigned) [Example 39, 2-chloro-N-(5-chloro-6-(2H-1,2,3-triazol-2-yl)pyridin-3-yl)-8-methyl-8-(trifluoromethyl)-7,8-dihydro-6H-cyclopenta[e]pyrazolo[1,5-a]pyrimidine-6-carboxamide] gave an IC50 of 10 to 100 nM. With `CC1(C)C[C@@H](C(=O)Nc2cnc(-n3nccn3)c(Cl)c2)c2cnc3cc(C#N)nn3c21` (single isomer, unassigned) [Example 3, N-(5-chloro-6-(2H-1,2,3-triazol-2-yl)pyridin-3-yl)-2-cyano-8,8-dimethyl-7,8-dihydro-6H-cyclopenta[e]pyrazolo[1,5-a]pyrimidine-6-carboxamide] the IC50 was ≥ 1000 nM. `CC1(C)CC(C(=O)Nc2cnc(-n3nccn3)c(Cl)c2)c2ccc3cc(O)nn3c21` (stereo not shown) [Example 41, N-(5-chloro-6-(2H-1,2,3-triazol-2-yl)pyridin-3-yl)-2-hydroxy-8,8-dimethyl-7,8-dihydro-6H-cyclopenta[e]pyrazolo[1,5-a]pyridine-6-carboxamide] showed an IC50 of 100 to 1000 nM. In the case of `CC1(C)C[C@H](C(=O)Nc2cnc(N3CCCC3)c(Cl)c2)c2cnc3cc(Cl)nn3c21` (single isomer, unassigned) [Example 17, 2-chloro-N-(5-chloro-6-(pyrrolidin-1-yl)pyridin-3-yl)-8,8-dimethyl-7,8-dihydro-6H-cyclopenta[e]pyrazolo[1,5-a]pyrimidine-6-carboxamide], the IC50 is reported as 10 to 100 nM. In the case of `Cc1cc2ncc3c(n2n1)C1(CC1)CC3C(=O)Nc1cnc(-n2nccn2)c(Cl)c1` (stereo not shown) [Example 18, N-(5-chloro-6-(2H-1,2,3-triazol-2-yl)pyridin-3-yl)-2-methyl-6,7-dihydrospiro[cyclopenta[e]pyrazolo[1,5-a]pyrimidine-8,1′-cyclopropane]-6-carboxamide], the IC50 is reported as 100 to 1000 nM. `CC1(C)CCC(C(=O)Nc2cnc(-n3nccn3)c(Cl)c2)c2cnc3cc(Cl)nn3c21` (stereo not shown) [Example 7, 2-chloro-N-(5-chloro-6-(2H-1,2,3-triazol-2-yl)pyridin-3-yl)-9,9-dimethyl-6,7,8,9-tetrahydropyrazolo[1,5-a]quinazoline-6-carboxamide] showed an IC50 of 10 to 100 nM. With `CC1(C)C[C@H](C(=O)Nc2cnc([C@@H]3CCCO3)c(Cl)c2)c2cnc3cc(Cl)nn3c21` (single isomer, unassigned) [Example 28, 2-chloro-N-(5-chloro-6-(tetrahydrofuran-2-yl)pyridin-3-yl)-8,8-dimethyl-7,8-dihydro-6H-cyclopenta[e]pyrazolo[1,5-a]pyrimidine-6-carboxamide] the IC50 was 100 to 1000 nM. With `CC1(C)C[C@@H](C(=O)Nc2cnc(-n3ncc(CO)n3)c(Cl)c2)c2cnc3cc(Cl)nn3c21` (single isomer, unassigned) [Example 30, 2-chloro-N-(5-chloro-6-(4-(hydroxymethyl)-2H-1,2,3-triazol-2-yl)pyridin-3-yl)-8,8-dimethyl-7,8-dihydro-6H-cyclopenta[e]pyrazolo[1,5-a]pyrimidine-6-carboxamide] the IC50 was ≥ 1000 nM. With `CC(C)(O)c1cnn(-c2ncc(NC(=O)C3CC(C)(C)c4c3cnc3cc(Cl)nn43)cc2Cl)n1` (single isomer, unassigned) [Example 22, 2-chloro-N-(5-chloro-6-(4-(2-hydroxypropan-2-yl)-2H-1,2,3-triazol-2-yl)pyridin-3-yl)-8,8-dimethyl-7,8-dihydro-6H-cyclopenta[e]pyrazolo[1,5-a]pyrimidine-6-carboxamide] the IC50 was 100 to 1000 nM. In the case of `Cn1nc(-c2ncc(NC(=O)C3CC(C)(C)c4c3cnc3cc(Cl)nn43)cc2Cl)cc1O` (stereo not shown) [Example 42, 2-chloro-N-(5-chloro-6-(5-hydroxy-1-methyl-1H-pyrazol-3-yl)pyridin-3-yl)-8,8-dimethyl-7,8-dihydro-6H-cyclopenta[e]pyrazolo[1,5-a]pyrimidine-6-carboxamide], the IC50 is reported as ≥ 1000 nM. In the case of `Cc1cc2ncc3c(n2n1)C(C)(C)C[C@H]3C(=O)Nc1cnc(-n2nccn2)c(Cl)c1` (single isomer, unassigned) [Example 5, N-(5-chloro-6-(2H-1,2,3-triazol-2-yl)pyridin-3-yl)-2,8,8-trimethyl-7,8-dihydro-6H-cyclopenta[e]pyrazolo[1,5-a]pyrimidine-6-carboxamide], the IC50 is reported as ≥ 1000 nM. With `CCc1cc2ncc3c(n2n1)C(C)(C)C[C@H]3C(=O)Nc1cnc(-n2nccn2)c(Cl)c1` (single isomer, unassigned) [Example 20, N-(5-chloro-6-(2H-1,2,3-triazol-2-yl)pyridin-3-yl)-2-ethyl-8,8-dimethyl-7,8-dihydro-6H-cyclopenta[e]pyrazolo[1,5-a]pyrimidine-6-carboxamide] the IC50 was ≥ 1000 nM. In the case of `CC1(C)C[C@@H](C(=O)Nc2cnc([C@H]3CCCO3)c(Cl)c2)c2cnc3cc(Cl)nn3c21` (single isomer, unassigned) [Example 27, 2-chloro-N-(5-chloro-6-(tetrahydrofuran-2-yl)pyridin-3-yl)-8,8-dimethyl-7,8-dihydro-6H-cyclopenta[e]pyrazolo[1,5-a]pyrimidine-6-carboxamide], the IC50 is reported as ≥ 1000 nM. `CC1(C)C[C@@H](C(=O)Nc2cnc(-n3cccn3)c(Cl)c2)c2cnc3cc(Cl)nn3c21` (single isomer, unassigned) [Example 12, 2-chloro-N-(5-chloro-6-(1H-pyrazol-1-yl)pyridin-3-yl)-8,8-dimethyl-7,8-dihydro-6H-cyclopenta[e]pyrazolo[1,5-a]pyrimidine-6-carboxamide] was tested, and the IC50 was ≥ 1000 nM. `Cn1cnc(-c2ncc(NC(=O)[C@@H]3CC(C)(C)c4c3cnc3cc(Cl)nn43)cc2Cl)c1` (single isomer, unassigned) [Example 34, 2-chloro-N-(5-chloro-6-(1-methyl-1H-imidazol-4-yl)pyridin-3-yl)-8,8-dimethyl-7,8-dihydro-6H-cyclopenta[e]pyrazolo[1,5-a]pyrimidine-6-carboxamide] was tested, and the IC50 was ≥ 1000 nM. `CC1(C)CC(C(=O)Nc2cnc(-n3cc(C#N)cn3)c(Cl)c2)c2cnc3cc(Cl)nn3c21` (single isomer, unassigned) [Example 15, 2-chloro-N-(5-chloro-6-(4-cyano-1H-pyrazol-1-yl)pyridin-3-yl)-8,8-dimethyl-7,8-dihydro-6H-cyclopenta[e]pyrazolo[1,5-a]pyrimidine-6-carboxamide] gave an IC50 of 100 to 1000 nM.
